# From ChEMBL document CHEMBL1148004, “Synthesis, characterization and antiamoebic activity of new indole-3-carboxaldehyde thiosemicarbazones and their Pd(II) complexes” (Eur J Med Chem, 2007)
# Test system: Entamoeba histolytica
# Test: Antiamoebic activity against Entamoeba histolytica HM1:IMSS by microdilution method
# Assay type: functional, organism-based
row,SMILES,IC50 [µM]
1,S=C(N/N=C\c1c[nH]c2ccccc12)NC1CCCCCCC1,6.08
2,CC1CCN(C(=S)N/N=C\c2c[nH]c3ccccc23)CC1,8.37
3,S=C(N/N=C\c1c[nH]c2ccccc12)NC1C2CC3CC(C2)CC1C3 (configuration not stated),1.08
4,S=C(N/N=C\c1c[nH]c2ccccc12)N1CCCC1,14.6
5,S=C(N/N=C\c1c[nH]c2ccccc12)N1CCN(c2ccccc2)CC1,3.09
6,S=C(N/N=C\c1c[nH]c2ccccc12)NC1CCCC1,13.9
7,S=C(N/N=C\c1c[nH]c2ccccc12)N1CCCc2ccccc21,1.68
